Measurements published in patent US20030026797A1, “Antifungal compositions” (priority 1996, published 2003).

Key:
[1] = tested on: conidia of Fusarium oxysporum; experiment: Survival of hot-water treated conidia of Fusarium oxysporum (plating on PDA-V agar); assay type: cell-based; conditions: 2 hrs at 43.5° C., 25,000 conidia per ml, no enzymes
Method: Viability of conidia of Fusarium oxysporum was measured at the start and at the end of the hot-water treatment. (2 hrs at 43.5° C.).
Five samples of 1 ml were mixed each with 20 ml of PDA containing 50 microgram/ml vendarcin (PDA-V) and poured into petri dishes of 14 cm diameter. Colonies were counted after 2 and 5 days at 25° C.
In the presence of natamycin and fungal cell wall degrading enzymes, 2 samples of 25 ml were taken from the bath at the beginning and the end of the treatment. These samples were centrifuged at 3,000*g for 15 min. The pellet containing the conidia was washed several times with sterile water to remove the antifungal agents, followed by centrifugation and dilution to allow for plating on PDA-V as described above. […]
Chitinase and β-1,3-glucanase respectively were added to the hot-water bath to a final activity of 36,000 and 10,000 units per liter. Units are as defined in Example 1.

[2] = tested on: Rhizoctonia; experiment: Soil treatment against Rhizoctonia infection of flower bulbs (visual inspection after 4 weeks); assay type: in vivo; conditions: 18° C.
Method: Bulbs were planted in pots at standard soil at a depth of 20 cm. Oat borne sclerotia of Rhizoctonia were mixed through the soil to infect the bulbs. Temperature was maintained at 18° C. during the experiment. Experiments were replicated 5 fold. Natamycin and fungal cell wall degrading enzymes were mixed as powders through the soil prior to infection with Rhizoctonia. Natamycin was tested at final concentrations of 1000, 500 and 100 mg/kg. Chitinase and β-1,3-glucanase was mixed through the soil to a final activity of 3600 and 1000 units per kg of soil. After 4 weeks bulbs were monitored for fungal infection by means of visual inspection.

C[C@@H]1C/C=C/C=C/C=C/C=C/[C@H](O[C@@H]2O[C@H](C)[C@@H](O)[C@H](N)[C@@H]2O)C[C@@H]2O[C@](O)(C[C@@H](O)C[C@H]3O[C@@H]3/C=C/C(=O)O1)C[C@H](O)[C@H]2C(=O)O [Natamycin, natamycin]
Surviving conidia per ml ([1]; natamycin 100 mg/L in hot-water bath): 70 per ml
Surviving conidia per ml ([1]; natamycin 200 mg/L in hot-water bath): 50 per ml
Surviving conidia per ml ([1]; natamycin 300 mg/L in hot-water bath): <1 per ml
Percentage of bulbs showing fungal infection ([2]; natamycin 100 mg/kg soil): 50%
Percentage of bulbs showing fungal infection ([2]; natamycin 500 mg/kg soil): 42%
Percentage of bulbs showing fungal infection ([2]; natamycin 1000 mg/kg soil): 19%
